# Tested on: TK6 cells
# Experiment: Toxicoproteomic analysis of treated TK6 cells (LC-MS/MS, DEPs, enrichment analysis)
# Assay type: cell-based, human
# Settings: specific DEPs 24-h 800 μg/mL
# Protocol: We conducted a proteomic analysis using TK6 cells treated by 4-nitroanthranilic acid that was negative in the short-term treatment and positive in the 24 h treatment. HC Blue No. 2 gave also same test results. […]
# Raw MS data were processed by MaxQuant (version 1.6.3.3) supported by the Andromeda search engine for peak detection and quantification. […]
# All NaN values of log2 LFQ intensities were converted to − 7, which is approximately equivalent to the minimum value of the LFQ intensities observed in the present study. Then, fold change values were calculated by dividing LFQ intensities (antilogarithms of the log2 LFQ intensities) into sample treated groups by intensities in non-treated (control) groups, respectively (4 and 24 h treated groups). Then, log2 fold changes were calculated. […]
structure (smiles),measurement,setting,value
Nc1cc([N+](=O)[O-])ccc1C(=O)O [4-Nitroanthranilic acid],Count: GO:0005515 ~ protein binding,Down-regulated,34
same,Count: GO:0005515 ~ protein binding,Up-regulated,88

# Reference: paper PMC7937321 (Genes and Environment, 2021)
